# Results from the METLIN SMRT retention time set (Domingo-Almenara et al. 2019).
# Experiment: gradient 5% acetonitrile 3 min, to 50% in 2 min, to 85% in 15 min, held 3 min, 100 µL/min
# Settings: column: Zorbax Extend-C18 2.1 x 50 mm; eluents: water / acetonitrile, 0.1% formic acid
# Summary of the method: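 Pure standards were analyzed in mixtures of ~100 molecules using HPLC coupled to a quadrupole time-of-flight mass spectrometer, in both positive and negative ionization mode. Separation used a Zorbax Extend-C18 column (2.1 × 50 mm, 1.8 μm) at 100 μL/min, with water and acetonitrile each containing 0.1% formic acid. Dead and dwell volumes were 40 μL and 900 μL, and data were collected over 3 months. Retention time was read from computationally picked adduct peaks, each inspected manually.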
row,RP-LC retention time [s],SMILES
1,597,C=CCc1cc(OC)ccc1OCC(O)CN1CCN(c2ccc(OC)cc2)CC1 (stereo not drawn)
2,835,Cc1ccc(C(=O)N(c2ccc(Br)cc2)C2C=CS(=O)(=O)C2)cc1 (stereo not drawn)
3,957,CC(C)CCN1N=C(C(=O)N2CCOCC2)S(=O)(=O)c2ccc(Cl)cc21
4,831,COc1ccc(-c2nc(C)c(CCNS(=O)(=O)c3ccc4c(c3)OCCO4)s2)cc1
5,750,CCCN(CC1CCOC1)C(=O)Nc1ccc(OCC)cc1 (stereo not drawn)
6,825,Cc1c(C(=O)NC2CC2)cnn1-c1ccc(-c2nc(C3CC3)no2)cn1
7,932,Cc1ccc(-n2cc3c(c(C(=O)NC(C)C)c2=O)CC(C)(C)CC3=O)cc1
8,598,O=C(c1cnn2c(-c3ccc4c(c3)OCO4)ccnc12)N1CCN(c2ccccn2)CC1
9,903,O=S(=O)(NCCOc1ccc2c(c1)OCO2)c1ccc(F)c(Cl)c1
10,785,O=S(=O)(CCCOc1ccc(F)cc1)NC1CC1
11,1010,CCCCC(=O)Nc1ccc2nc(N3CCN(c4ccccc4Cl)CC3)cc(C(=O)O)c2c1
12,686,CCCCC(=O)N(C)CC1CCOCC1
13,807,Cc1ccc(-c2nnc(-c3nc(NCCCN4CCCC4=O)c4ccccc4n3)o2)cc1
14,757,Cn1c(=O)c2c(-c3ccc(F)cc3)c(C#N)c(N)nc2n(C)c1=O
15,737,CCn1c(=O)sc2cc(S(=O)(=O)N3CCC(C(=O)NC4CC4)CC3)ccc21
16,841,Cc1csc(-c2cc(S(=O)(=O)NC3CC3)cn2CC(=O)N2CCCCC2)n1
17,1180,CCC(C)n1c(=O)c2ccccc2n(Cc2nc(-c3cc(OC)cc(OC)c3)no2)c1=O (stereo not drawn)
18,1300,CC(C)Cn1c(=O)c(-c2ccc(C(=O)NCCC3=CCCCC3)cc2)nc2ccccc21
19,946,COc1ccccc1C1CC(=O)Nc2c(S(=O)(=O)c3ccccc3)csc21 (stereo not drawn)

row,RP-LC retention time [s],SMILES
1,1140,O=C(NCc1ccc(F)cc1)c1c(O)c2cccnc2n(-c2cccc(F)c2)c1=O
2,804,Cc1cc(OCC(=O)Nc2ccccc2)nc(N2CCN(c3ccccc3)CC2)n1
3,673,COc1ccc(NC(=O)c2c[nH]c3ncccc23)cc1
4,857,O=C(Nc1nc(-c2ccc3c(c2)OCCO3)cs1)c1ccc2ncsc2c1
5,616,CN1CCN(CCNc2ccc(CO)c3sc4ccccc4c(=O)c23)CC1
6,888,O=C(Cn1nc2c3cc(-c4ccc(F)cc4)nn3ccn2c1=O)Nc1ccc(F)cc1
7,596,Cc1ccnc(OCC(=O)NCCNc2cc(-n3nc(C)cc3C)nc(C)n2)n1
8,540,O=C(NCc1cccnc1)C1(c2ccccc2)CCOCC1
9,816,CCc1nc2cc(N3CCC(C(=O)NCc4cccs4)CC3)cnc2nc1CC
10,870,COc1cccc(NC(=O)NC2CCN(c3cc(C)cc(C)c3)C2=O)c1 (stereo not drawn)
11,788,COc1ccc(NC(=O)c2c(S(=O)(=O)Nc3ccc(Cl)cc3)n[nH]c2C)cc1OC
12,833,Cc1ccccc1Nc1c(-c2cccc(Br)c2)nc2cccc(C)n12
13,850,O=C(Nc1ccc2c(c1)OCCO2)C(=O)c1cn(CC(=O)N2CCOCC2)c2ccccc12
14,704,N#Cc1c(NC(=O)CSc2nnc3ccccn23)sc2c1CCC2
15,678,CC(=O)Nc1nnc(SCc2nnc(-c3ccc4c(c3)OCO4)o2)s1
16,1290,Cc1ccc(-c2csc(NC(=O)COc3ccc(C)cc3Br)n2)cc1
17,855,COc1ccccc1CC(=O)Nc1ccc2c(c1)Sc1ncccc1C(=O)N2C(C)C
18,916,Cc1cc(C)cc(NC(=O)Cn2c(=O)c(CCC(=O)NC3CCCC3)nc3ccccc32)c1

# Second part, the compound before the results:
row,SMILES,RP-LC retention time [s]
1,Cn1c(=O)n([C@H]2CCN(C(=O)c3ccc(Cn4ccnc4)o3)C2)c2ncccc21,573
2,COC(=O)C1=CN(c2cccc(OC)c2)c2ccccc2S1(=O)=O,776
3,Cc1ccccc1NC(=O)N1CCCC1c1nc(-c2cccc(Cl)c2)no1 (stereo not drawn),1050
4,Cc1ccc(Sc2nccnc2N2CCCC(C(=O)Nc3cc(C)cc(C)c3)C2)cc1 (stereo not drawn),1150
5,CCNC(=O)NCC1CCN(C(=O)NC(C)(C)C)CC1,597
6,CSc1ccc(NC(=O)C2CCN(c3cncnc3N3CCOCC3)CC2)cc1,669
7,Cc1ccc(CNCCSc2nnnn2C)s1,580
8,CCCN(CC1CCOC1)C(=O)NCCc1ccccc1 (stereo not drawn),791
9,CCOC(=O)c1c(C)oc2nc(C)nc(NCCc3ccc(OC)c(OC)c3)c12,1050
10,Cc1ccccc1NC(=O)c1csc(-c2cn(C)c3ncccc23)n1,1020
11,COc1ccc(-n2cc(-c3nc(-c4ccccn4)no3)c3ccccc3c2=O)cc1OC,821
12,COC(=O)c1ccccc1NC(=O)CSc1cc(N2CCN(c3ccccc3OC)CC2)ncn1,905
13,CCCC(C)C(=O)NC1CCN(C2=NS(=O)(=O)C(c3ccc(F)cc3)=C2C)CC1 (stereo not drawn),856
14,COc1ccc2c(c1)C1(CCN(C(=O)Cc3ccc(OC)c(Cl)c3)C1)C(=O)N2 (stereo not drawn),745
15,CC(C)(C)c1ccc(C(=O)N2CCN=C2N2CCCC2)cc1,738
16,CCOC(=O)C1=C(CN2CC=C(c3ccccc3)CC2)NC(=O)NC1c1cccc(OC)c1OC (stereo not drawn),704
17,Cc1ccc2c(NCc3ccccc3)c(-c3nc(C4CC4)no3)cnc2n1,755
18,CN(C)C(=O)c1ccc2c(c1)N(CC(=O)Nc1ccccc1Cl)C(=O)CS2,705
19,CCN1CCCC1CNC(=O)Cn1nc(C)n2nc(-c3ccccc3)cc2c1=O (stereo not drawn),635
20,O=C(CN1CC=C(c2cnn(-c3ccc(F)cc3)c2)CC1)N1CCN(c2ccccc2F)CC1,748
21,O=C(c1ccc(F)c(F)c1)N1CCN(c2nc(CN3CCCC3)cs2)CC1,635
22,CN(C)c1ccc(CNC(=O)C2CCN(c3cc(N4CCCCC4)ncn3)CC2)cc1,559
23,Cc1cccc(-c2nnc(-c3nc(NCc4ccc(C)o4)c4ccccc4n3)o2)c1,670
24,CCn1cc(-c2nc(-c3ccc(OCC(C)C)cc3)no2)c(=O)c2cc(F)c(N3CCOCC3)cc21,917
25,CCOc1cccc(-c2noc(Cn3c(=O)n(-c4ccc(F)cc4)c(=O)c4sccc43)n2)c1,1050
26,COC(=O)c1ccc(NC(=O)C(=O)NCC2CCN(C(=O)Oc3ccccc3)CC2)cc1,868

row,SMILES,RP-LC retention time [s]
1,CNCc1ccc(-c2cc(Cl)cc(Cl)c2)o1,658
2,CC1(C(=O)NCc2ccccc2Cl)Cn2cnc(C(=O)NCc3ccccc3)c2C(=O)N1C1CC1 (stereo not drawn),789
3,CCCNC(=O)N(C1CCOCC1)C1CCN(C(=O)c2cccs2)CC1,657
4,CCOc1ccc(CCNC(=O)C2CCCN(S(=O)(=O)N3CCC(C)CC3)C2)cc1 (stereo not drawn),1010
5,CCN(C(=O)CC(C)S(=O)(=O)c1ccc2c(c1)CCN2C(=O)C1CC1)c1ccccc1 (stereo not drawn),867
6,CSc1ccc(-c2nc3cc(C)ccn3c2NC2CCCCC2)cc1,896
7,CSc1cccc(NC(=O)Cn2c(-c3cnccn3)nc(C)c(C)c2=O)c1,769
8,O=C(N[C@H]1C[C@@H]2C[C@H]1CN2C(=O)Nc1ccc2c(c1)CCC2)c1ccccc1,829
9,COc1cccc(CNC(=O)Cn2c(=O)c3cc(-c4ccco4)nn3c3ncccc32)c1,771
10,COC(=O)N1CCc2ccc(F)cc2C1C(=O)Nc1ccc(OC)c(Cl)c1 (stereo not drawn),874
11,Cc1cc(NC(=O)C2CCCN2S(=O)(=O)c2ccc(Cl)s2)n(C(C)C)n1 (stereo not drawn),776
12,COc1cccc(-c2noc(Cn3ccn(-c4cc(C)cc(C)c4)c(=O)c3=O)n2)c1OC,870
13,CCOC(=O)C1CCCN(S(=O)(=O)c2cccs2)C1 (stereo not drawn),830
14,Cc1ccc(-c2cn3c(CC(=O)Nc4ccc(C#N)cc4)csc3n2)cc1C,821
15,C=CCn1nc2ccc(S(=O)(=O)N3CCCC3)cn2c1=O,706
16,COCCCNC(=O)[C@@H]1[C@H](c2cc(OC)c(OC)c(OC)c2)c2cc3c(cc2[C@H](O)[C@H]1CO)OCO3,630
17,CC(C)Cc1cc(-c2nn3c(COc4ccc(F)cc4)nnc3s2)n[nH]1,936
18,CC(C)CC(=O)N1CCC2(CC1)NCc1ccccc1-n1ccnc12,594
19,CC1CCN(C(=O)C2CCN(c3ccc4nnc(-c5ccccc5)n4n3)CC2)CC1,902
20,O=C(Nc1nnc(C2CC(=O)N(c3ccccc3)C2)o1)c1ccc(Cl)cc1 (stereo not drawn),746
21,COC(=O)CNC(=O)N1CCCCCC1c1ccc(C)cc1 (stereo not drawn),852
22,CCc1nnc(-c2ccc3ccn(CC(=O)NCc4ccccc4)c3c2)o1,1300
23,COc1ccc(C(CC(=O)NCCN2CCOCC2)N2Cc3ccccc3C2=O)cc1OC (stereo not drawn),603
24,COc1ccc(-c2cc3c(=O)n(Cc4noc(CN5CCCC5)n4)ccn3n2)cc1,646
25,COc1ccc(-c2cc(N3CCC(NC(=O)c4ccc(OC)cc4OC)C3)n[nH]2)cc1 (stereo not drawn),705
